This note sets out measurements from patent publication US20070048372A1, “Method for treating non-inflammatory osteoarthritic pain” (SRZ Properties, Inc., priority 2005, published 2007).

“Also recorded” adds a separate entry of the source.

Assay [1] deals with rat formalin paw test (late phase). The experiment in a line: Rat formalin paw test (late phase): number of flinches and licking time. It is filed as in vivo, rat (Rj: Wistar (Han)). On the procedure:
Rats were given an intraplantar injection of 5% formalin (50 μl) into the posterior left paw. This treatment induces a recognizable flinching and licking response of the affected paw in control animals. The number of flinches was counted for 15 minutes, beginning 20 minutes after injection of formalin. The time spent licking the affected paw was also recorded.
Male Rj: Wistar (Han) rats, 10 per group, weighing 100-130 g at the beginning of the experiments were studied per group. The test was performed blind.
Lacosamide (20 mg/kg), gabapentin (50 and 100 mg/kg), combinations of lacosamide (20 mg/kg) with gabapentin (50 and 100 mg/kg), and vehicle were administered i.p. 10 minutes before injection of formalin.
Lacosamide (10 and 20 mg/kg), morphine (2 and 4 mg/kg), combinations of lacosamide (10 and 20 mg/kg) with morphine (2 and 4 mg/kg), and vehicle were administered i.p. 10 minutes before injection of formalin.
Lacosamide (10 mg/kg), duloxetine (8 mg/kg), a combination of lacosamide (10 mg/kg) with duloxetine (8 mg/kg), and vehicle were administered i.p. 10 minutes before injection of formalin.
Lacosamide (10 and 20 mg/kg), memantine (4 and 8 mg/kg), combinations of lacosamide (10 and 20 mg/kg) with memantine (4 and 8 mg/kg), and vehicle were administered i.p. 10 minutes before injection of formalin.
Lacosamide (10 and 20 mg/kg), naproxen (8 and 16 mg/kg), combinations of lacosamide (10 and 20 mg/kg) with […] (8 and 16 mg/kg), and vehicle were administered i.p. 10 minutes before injection of formalin. Morphine (8 mg/kg) was included as a comparative treatment.

The subject of assay [2] is biceps muscle grip strength after TNF-induced muscle pain. The experiment in a line: Biceps muscle grip strength after TNF-induced muscle pain. The assay is classed as in vivo, rat (Sprague Dawley). The settings on record: for reversal of TNF-induced reduction of grip strength: 6 h after TNF i.m., 30 to 60 minutes after drug. On the procedure: (§1) Adult male Sprague Dawley rats with a body weight of 250 g to 300 g were used (supplier: Charles River, Sulzfeld, Germany). Animals were group-housed (3 animals per cage) and maintained in a room with controlled temperature (21-22° C.) and a reversed light-dark cycle (12 h/12 h) with food and water available ad libitum. All experiments were approved by the Bavarian State animal experimentation committee and carried out in accordance with its regulations.
(§2) Recombinant rat tumor necrosis factor alpha (herein referred to as TNF) was obtained from R&D Systems, Minneapolis, Minn., U.S.A. TNF was diluted in 0.9% NaCl and used in a concentration of 1 μg in 50 μl. Injections were performed in short halothane narcosis with a 30 g needle bilaterally into the gastrocnemius or into the biceps brachii muscle. All rats were used to the behavioral tests before injections and baseline values were recorded over three test days.
Grip strength of the forelimbs was tested with a digital grip force meter (DFIS series, Chatillon, Greensboro, NC, U.S.A.). The rat was positioned to grab the grid with the forelimbs and was gently pulled so that the grip strength could be recorded. Means of three trials were calculated. The effect of the TNF treatment was calculated for each animal separately and only animals with a significant TNF effect were included for further analysis.
Rats were injected with TNF into the biceps brachii muscle at 8 am. Six hours later, grip strength of the forelimbs was tested with a digital grip force meter. Test drug was administered, and grip strength was again tested after 30 to 60 minutes.
(§3) The rats, initially 10 per group, were treated with either 3, 10 or 30 mg/kg lacosamide, 2 mg/kg metamizol, 30 or 100 mg/kg pregabalin, 100 mg/kg gabapentin, or the NaCl vehicle, i.p. (intraperitoneally). Volume of i.p. injections was 0.5 ml. A pilot study was performed to confirm that i.m. (intramuscular) injection of 1 μg TNF into the gastrocnemius muscle was sufficient to induce pressure hyperalgesia.
(§4) Data are shown in graphs displaying means and standard errors of the means (SEM). Pre- and post-treatment data were compared using ANOVA (analysis of variance) and a Tukey post hoc test. Means of treatment groups were compared using a one-way ANOVA and Dunnett's post hoc test. Maximal possible effects (MPE) were calculated for all types of treatment.

Assay [3] deals with muscle pressure hyperalgesia induced by TNF. The experiment in a line: TNF-induced muscle pressure hyperalgesia (Randall-Selitto, withdrawal threshold to muscle pressure). It is filed as in vivo, rat (Sprague Dawley). The conditions noted are these: for reversal of muscular mechanical hyperalgesia (withdrawal threshold to muscle pressure): 18 h after TNF i.m., 30 to 60 minutes after drug; for full reversal of the muscle hyperalgesia: doses tested: pregabalin 30 and 100 mg/kg, gabapentin 100 mg/kg i.p. The protocol: as §1, §2
Mechanical withdrawal thresholds to muscle pressure were measured with an analgesimeter (Ugo Basile, Comerio, Italy). The rat was allowed to crawl into a sock which helps the rat to relax. The hind limbs were positioned such that an increasing pressure could be applied onto the gastrocnemius muscle (maximum 250 g). The pressure needed to elicit withdrawal was recorded. Means of 3 trials for each hind limb were calculated (interstimulus interval of >30 sec). Only animals with a significant TNF effect were included for further analysis.
Rats were injected with TNF into the gastrocnemius muscle at 2 pm. Eighteen hours later, rats were tested for pressure hyperalgesia pre- and post-administration of the test drug. Rats were tested for pressure hyperalgesia 30 to 60 minutes after drug administration.
as §3, §4

Assay [4] concerns monosodium iodoacetate-induced tactile allodynia. The experiment in a line: Monosodium iodoacetate-induced tactile allodynia (von Frey filaments). The assay is classed as in vivo, rat (Wistar). The conditions noted are these: 30 mg/kg s.c., 60 minutes before test.
Assay [5] concerns monosodium iodoacetate-induced mechanical hyperalgesia. The experiment in a line: Monosodium iodoacetate-induced mechanical hyperalgesia (Randall-Selitto paw pressure). The assay is classed as in vivo, rat (Wistar). The conditions noted are these: 30 mg/kg s.c.
Where [6] appears, read: Example 3, 100 mg/kg i.p. alone.

As to `CNCC[C@H](Oc1cccc2ccccc12)c1cccs1` [Duloxetine], in assay [1] (Example 5, 8 mg/kg i.p. alone), the “Licking time % change (a) compared with vehicle control” value (“Licking time % change” below) is on record as −26% (a), the “Licking time (seconds) mean ± SEM” value is listed as 195.5 ± 45.0 NS (a) seconds, the “No. of flinches % change (a) compared with vehicle control” value (“No. of flinches % change” for short) is reported as −1% (a) and the “No. of flinches mean ± SEM” value is recorded as 149.6 ± 27.3 NS (a). In assay [1] (Example 5, 8 mg/kg i.p. alone), the “effects on the number of flinches and the time spent licking” value is reported as “had no clear effects”.

Take `NCC1(CC(=O)O)CCCCC1` [Gabapentin]: in assay [2] (100 mg/kg i.p.), the “MPE (maximal possible effect) on biceps muscle grip strength, compared with vehicle” value is “significantly different from vehicle” and the “reversal of TNF-induced reduction of grip strength” value is given as “significant reversal; also recorded: improved grip strength”. In assay [1] (Example 3, 50 mg/kg i.p. alone), the “Licking time % change” value is given as −28% (a), the “Licking time (seconds) mean ± SEM” value is 161.0 ± 27.3 NS (a) seconds, the “No. of flinches % change” value was −24% (a) and the “No. of flinches mean ± SEM” value is 97.4 ± 23.8 NS (a). Moreover, in assay [1] (Example 3, 50 mg/kg i.p. alone), the “decrease of the number of flinches as compared with vehicle controls” value is 24% and the “decrease of the time spent licking as compared with vehicle controls” value is 28%. Further, in assay [1] (setting [6]), the “Licking time % change” value is −60% (a), the “Licking time (seconds) mean ± SEM” value is given as 90.0 ± 22.5 (a) seconds, the “No. of flinches % change” value is given as −31% (a) and the “No. of flinches mean ± SEM” value is 88.1 ± 19.4 NS (a). In assay [1] (setting [6]), the “decrease of the number of flinches as compared with vehicle controls” value was 31% and the “decrease of the time spent licking as compared with vehicle controls” value stood at 60%. Also, in assay [3] (100 mg/kg i.p.), the “MPE (maximal possible effect) on muscle pressure hyperalgesia, compared with vehicle” value is “significantly different from vehicle” and the “reversal of muscular mechanical hyperalgesia (withdrawal threshold to muscle pressure)” value is “significant reversal”. Moreover, the “full reversal of the muscle hyperalgesia” value in assay [3] is on record as “Neither pregabalin nor gabapentin led to a full reversal”.

Turning to `CC12CC3CC(C)(C1)CC(N)(C3)C2` [Memantine], in assay [1] (Example 6, 4 mg/kg i.p. alone), the “Licking time % change” value is recorded as “+25% (a)”, the “Licking time (seconds) mean ± SEM” value is listed as 219.9 ± 21.8 NS (a) seconds, the “No. of flinches % change” value is on record as −3% (a) and the “No. of flinches mean ± SEM” value is 161.4 ± 26.3 NS (a). Also, the “increase of the time spent licking as compared with vehicle controls” value in assay [1] (Example 6, 4 mg/kg i.p. alone) amounted to 25%. Moreover, in assay [1] (Example 6, 8 mg/kg i.p. alone), the “Licking time % change” value was “+35% (a)”, the “Licking time (seconds) mean ± SEM” value is 237.3 ± 18.9 (a) seconds, the “No. of flinches % change” value was −20% (a) and the “No. of flinches mean ± SEM” value is 132.3 ± 24.6 NS (a). The “increase of the time spent licking as compared with vehicle controls” value in assay [1] (Example 6, 8 mg/kg i.p. alone) is recorded as 35%. In addition, the “effect on the number of flinches as compared with vehicle controls” value in assay [1] (Example 6, 4 and 8 mg/kg i.p. alone) is “did not clearly affect”.

With `COc1ccc2cc([C@H](C)C(=O)O)ccc2c1` [Naproxen], in assay [1] (Example 7, 8 mg/kg i.p. alone), the “Licking time % change” value is “+16% (a)”, the “Licking time (seconds) mean ± SEM” value is 222.1 ± 21.1 NS (a) seconds, the “No. of flinches % change” value is recorded as “+30% (a)” and the “No. of flinches mean ± SEM” value was 148.0 ± 35.5 NS (a). Besides, in assay [1] (Example 7, 16 mg/kg i.p. alone), the “Licking time % change” value is −1% (a), the “Licking time (seconds) mean ± SEM” value is given as 190.1 ± 25.4 NS (a) seconds, the “No. of flinches % change” value is given as “+2% (a)” and the “No. of flinches mean ± SEM” value is 116.6 ± 20.7 NS (a). Also, the “effect on the number of flinches or the time spent licking as compared with vehicle controls” value in assay [1] (Example 7, 8 and 16 mg/kg i.p. alone) is “did not clearly affect”.

As to `O=C(O)Cc1ccccc1Nc1c(Cl)cccc1Cl` [diclofenac], the “tactile allodynia of iodoacetate-treated rats (von Frey)” value in assay [4] (day 3), in assay [4] (day 7) and in assay [4] (day 14) was “had no effect” in each case. For the same molecule, the “paw pressure withdrawal threshold compared to iodoacetate/vehicle treated animals (mechanical hyperalgesia)” value in assay [5] (day 3) was “increase in paw pressure withdrawal threshold”. The “mechanical hyperalgesia (paw pressure withdrawal threshold)” value in assay [5] (day 7) is given as “reduced mechanical hyperalgesia”.

On to `Cc1c(N(C)CS(=O)(=O)[O-])c(=O)n(-c2ccccc2)n1C.[Na+]` [metamizol], for which, in assay [2] (2 mg/kg i.p.), the “MPE (maximal possible effect) on biceps muscle grip strength, compared with vehicle” value is given as “significantly different from vehicle” and the “reversal of TNF-induced reduction of grip strength” value is reported as “significant reversal”. For the same molecule, in assay [3] (2 mg/kg i.p.), the “MPE (maximal possible effect) on muscle pressure hyperalgesia, compared with vehicle” value is given as “significantly different from vehicle” and the “reversal of muscular mechanical hyperalgesia (withdrawal threshold to muscle pressure)” value is “complete reversal”.

As for `CC(C)C[C@H](CN)CC(=O)O` [pregabalin], in assay [2] (100 mg/kg i.p.), the “MPE (maximal possible effect) on biceps muscle grip strength, compared with vehicle” value is listed as “significantly different from vehicle” and the “reversal of TNF-induced reduction of grip strength” value is listed as “significant reversal; also recorded: improved grip strength”. In addition, in assay [3] (30 mg/kg i.p.), the “MPE (maximal possible effect) on muscle pressure hyperalgesia, compared with vehicle” value is “significantly different from vehicle” and the “reversal of muscular mechanical hyperalgesia (withdrawal threshold to muscle pressure)” value is given as “significant reversal”. Also, in assay [3] (100 mg/kg i.p.), the “MPE (maximal possible effect) on muscle pressure hyperalgesia, compared with vehicle” value is recorded as “significantly different from vehicle” and the “reversal of muscular mechanical hyperalgesia (withdrawal threshold to muscle pressure)” value is recorded as “significant reversal”. Moreover, in assay [3], the “full reversal of the muscle hyperalgesia” value is given as “Neither pregabalin nor gabapentin led to a full reversal”.
